Measurements taken from patent US9157905B2, “Method for identifying oncogene, method for establishing oncogene-expressing cell, and method of screening oncogene targeting drug” (FUJIREBIO INC., priority 2010, dated 2015).

Assays:
PC-9 cells = experiment: MTS assay of living cells, PC-9 cells cultured 72 hours with drug; type: cell-based, human; conditions: gefitinib at various concentrations, FIG. 5
Description: (§1) PC-9 cells or cells obtained by introducing the oncogene, the PDGFRα V561D gene into PC-9 cells in Example 4 were seeded in a 96-well plate. The cells were cultured for 72 hours in medium containing gefitinib at various concentrations, and then living cells were quantified by an MTS assay.

[1] = tested on: PDGFRα V561D gene-introduced cells (PC-9); experiment: MTS assay of living cells, PDGFRα V561D gene-introduced PC-9 cells cultured 72 hours with drug; type: cell-based, human
Description: as §1
The cells obtained by introducing the PDGFRα V561D gene into PC-9 cells in Example 4 were seeded in a 96-well plate. The cells were cultured in medium containing a PDGFRα inhibitor, imatinib at various concentrations or medium containing 1 μM gefitinib and imatinib at various concentrations for 72 hours, and then living cells were quantified by the MTS assay.

SMILES | proliferation of PC-9 cells (PC-9 cells) | proliferation of the PDGFRα V561D gene-introduced cells ([1]; gefitinib at various concentrations, FIG. 5) | proliferation of the PDGFRα V561D gene-introduced cells ([1]; in the presence of 1 μM gefitinib (medium with imatinib at various concentrations), FIG. 6) | proliferation of the PDGFRα V561D gene-introduced cells ([1]; imatinib at various concentrations in the presence of 1 μM gefitinib, FIG. 6)
COc1cc2ncnc(Nc3ccc(F)c(Cl)c3)c2cc1OCCCN1CCOCC1 [gefitinib] | inhibited by gefitinib in a dose dependent manner | not inhibited | inhibited in the presence of 1 μM gefitinib | 
Cc1ccc(NC(=O)c2ccc(CN3CCN(C)CC3)cc2)cc1Nc1nccc(-c2cccnc2)n1 [imatinib] |  |  |  | inhibited by the PDGFRα inhibitor, imatinib in a dose dependent manner
